Results taken from patent US20200270309A1, “MALEIMIDE GROUP-MODIFIED ANGIOGENESIS INHIBITOR HM-1 AND USE THEREOF” (NANJING ANJI BIOLOGICAL TECHNOLOGY CO., LTD, priority 2017, published 2020).
Like-named read-outs stand apart in the source and are kept apart here. Peptide text beside a SMILES is read from it. * marks the point of attachment. X41 = O=C1C=CC(=O)N1c1ccc(CCCCCCCCCCCCC(=O)*)cc1; X76 = O=C1C=CC(=O)N1CCOCCCCCCCC(=O)*; X21 = O=C1C=CC(=O)N1CCOCCCCCCC(=O)*; X13 = O=C1C=CC(=O)N1CCOCCCCCC(=O)*; X32 = O=C1C=CC(=O)N1CCOCCOCCC(=O)*; X8 = O=C1C=CC(=O)N1CCOCCOCCCC(=O)*; X12 = O=C1C=CC(=O)N1CCOCCCCC(=O)*; X30 = O=C1C=CC(=O)N1CCOCCOCC(=O)*; X1 = O=C1C=CC(=O)N1CCOCCCC(=O)*; X42 = O=C1C=CC(=O)N1CCOCCC(=O)*; X38 = O=C1C=CC(=O)N1CCOCC(=O)*

Test: Half-lives and pharmacokinetic parameters of polypeptides vs HM-1
Conditions: in vivo
[1] = read-out: T1/2β (half-life) (converted)

Compound | AUC(0-inf) [ng·h/mL] | MRT inf [h] | clearance [mL/min/kg] | half-life (T1/2β (half-life)) [h] | AUC(0-inf) (read-out: AUC0-∞) [ng·h/mL] | clearance (read-out: CL (converted)) [mL/min/kg] | MRT inf (read-out: MRT0-∞) [h] | half-life [1] [h]
C[C@H](NC(=O)CNC(=O)[C@H](CCCNC(=N)N)NC(=O)CCCCCCCCCCCCc1ccc(N2C(=O)C=CC2=O)cc1)C(=O)N[C@@H](CC(=O)O)C(=O)N[C@@H](CCCNC(=N)N)C(=O)N[C@@H](C)C(=O)NCC(=O)NCC(=O)NCC(=O)NCC(=O)N[C@@H](CCCNC(=N)N)C(=O)NCC(=O)N[C@@H](CC(=O)O)C(=O)O [X48] (X41-RGADRAGGGGRGD-OH) | 29200 ± 7650 | 52.9 ± 12.1 | 0.565 | 36.64 ± 0.27 |  |  |  | 
C[C@H](NC(=O)CNC(=O)[C@H](CCCNC(=N)N)NC(=O)COCCN1C(=O)C=CC1=O)C(=O)N[C@@H](CC(=O)O)C(=O)N[C@@H](CCCNC(=N)N)C(=O)N[C@@H](C)C(=O)NCC(=O)NCC(=O)NCC(=O)NCC(=O)N[C@@H](CCCNC(=N)N)C(=O)NCC(=O)N[C@@H](CC(=O)O)C(=O)O [X49] (X38-RGADRAGGGGRGD-OH) |  |  |  |  | 28500 ± 7290 | 0.585 | 51 ± 11.1 | 35.31 ± 0.32
C[C@H](NC(=O)CNC(=O)[C@H](CCCNC(=N)N)NC(=O)CCOCCN1C(=O)C=CC1=O)C(=O)N[C@@H](CC(=O)O)C(=O)N[C@@H](CCCNC(=N)N)C(=O)N[C@@H](C)C(=O)NCC(=O)NCC(=O)NCC(=O)NCC(=O)N[C@@H](CCCNC(=N)N)C(=O)NCC(=O)N[C@@H](CC(=O)O)C(=O)O [X50] (X42-RGADRAGGGGRGD-OH) |  |  |  |  | 26900 ± 7090 | 0.62 | 48.1 ± 14.2 | 33.33 ± 0.25
C[C@H](NC(=O)CNC(=O)[C@H](CCCNC(=N)N)NC(=O)CCCOCCN1C(=O)C=CC1=O)C(=O)N[C@@H](CC(=O)O)C(=O)N[C@@H](CCCNC(=N)N)C(=O)N[C@@H](C)C(=O)NCC(=O)NCC(=O)NCC(=O)NCC(=O)N[C@@H](CCCNC(=N)N)C(=O)NCC(=O)N[C@@H](CC(=O)O)C(=O)O [X51] (X1-RGADRAGGGGRGD-OH) | 32500 ± 7310 | 58.1 ± 9.42 | 0.513 | 40.28 ± 0.24 |  |  |  | 
C[C@H](NC(=O)CNC(=O)[C@H](CCCNC(=N)N)NC(=O)CCCCOCCN1C(=O)C=CC1=O)C(=O)N[C@@H](CC(=O)O)C(=O)N[C@@H](CCCNC(=N)N)C(=O)N[C@@H](C)C(=O)NCC(=O)NCC(=O)NCC(=O)NCC(=O)N[C@@H](CCCNC(=N)N)C(=O)NCC(=O)N[C@@H](CC(=O)O)C(=O)O [X52] (X12-RGADRAGGGGRGD-OH) | 27900 ± 8180 | 50.1 ± 9.67 | 0.597 | 34.69 ± 0.34 |  |  |  | 
C[C@H](NC(=O)CNC(=O)[C@H](CCCNC(=N)N)NC(=O)COCCOCCN1C(=O)C=CC1=O)C(=O)N[C@@H](CC(=O)O)C(=O)N[C@@H](CCCNC(=N)N)C(=O)N[C@@H](C)C(=O)NCC(=O)NCC(=O)NCC(=O)NCC(=O)N[C@@H](CCCNC(=N)N)C(=O)NCC(=O)N[C@@H](CC(=O)O)C(=O)O [X56] (X30-RGADRAGGGGRGD-OH) | 32900 ± 8070 | 59 ± 10.1 | 0.507 | 40.86 ± 0.29 |  |  |  | 
C[C@H](NC(=O)CNC(=O)[C@H](CCCNC(=N)N)NC(=O)CCOCCOCCN1C(=O)C=CC1=O)C(=O)N[C@@H](CC(=O)O)C(=O)N[C@@H](CCCNC(=N)N)C(=O)N[C@@H](C)C(=O)NCC(=O)NCC(=O)NCC(=O)NCC(=O)N[C@@H](CCCNC(=N)N)C(=O)NCC(=O)N[C@@H](CC(=O)O)C(=O)O [X57] (X32-RGADRAGGGGRGD-OH) | 33800 ± 8180 | 60.5 ± 10.5 | 0.493 | 41.93 ± 0.24 |  |  |  | 
C[C@H](NC(=O)CNC(=O)[C@H](CCCNC(=N)N)NC(=O)CCCOCCOCCN1C(=O)C=CC1=O)C(=O)N[C@@H](CC(=O)O)C(=O)N[C@@H](CCCNC(=N)N)C(=O)N[C@@H](C)C(=O)NCC(=O)NCC(=O)NCC(=O)NCC(=O)N[C@@H](CCCNC(=N)N)C(=O)NCC(=O)N[C@@H](CC(=O)O)C(=O)O [X58] (X8-RGADRAGGGGRGD-OH) | 26200 ± 7810 | 47.9 ± 13.5 | 0.635 | 32.57 ± 0.28 |  |  |  | 

Continued, values first:

AUC(0-inf) [ng·h/mL] | MRT inf [h] | clearance [mL/min/kg] | half-life (T1/2β (half-life)) [h] | AUC(0-inf) (read-out: AUC0-∞) [ng·h/mL] | clearance (read-out: CL (converted)) [mL/min/kg] | MRT inf (read-out: MRT0-∞) [h] | half-life [1] [h] | Compound
31100 ± 7940 | 55.5 ± 12.4 | 0.537 | 38.47 ± 0.24 |  |  |  |  | C[C@H](NC(=O)CNC(=O)[C@H](CCCNC(=N)N)NC(=O)CCCCCOCCN1C(=O)C=CC1=O)C(=O)N[C@@H](CC(=O)O)C(=O)N[C@@H](CCCNC(=N)N)C(=O)N[C@@H](C)C(=O)NCC(=O)NCC(=O)NCC(=O)NCC(=O)N[C@@H](CCCNC(=N)N)C(=O)NCC(=O)N[C@@H](CC(=O)O)C(=O)O [X53] (X13-RGADRAGGGGRGD-OH)
27200 ± 7640 | 48.8 ± 11.2 | 0.612 | 33.83 ± 0.25 |  |  |  |  | C[C@H](NC(=O)CNC(=O)[C@H](CCCNC(=N)N)NC(=O)CCCCCCOCCN1C(=O)C=CC1=O)C(=O)N[C@@H](CC(=O)O)C(=O)N[C@@H](CCCNC(=N)N)C(=O)N[C@@H](C)C(=O)NCC(=O)NCC(=O)NCC(=O)NCC(=O)N[C@@H](CCCNC(=N)N)C(=O)NCC(=O)N[C@@H](CC(=O)O)C(=O)O [X54] (X21-RGADRAGGGGRGD-OH)
24300 ± 8150 | 43.5 ± 12.4 | 0.687 | 30.1 ± 0.36 |  |  |  |  | C[C@H](NC(=O)CNC(=O)[C@H](CCCNC(=N)N)NC(=O)CCCCCCCOCCN1C(=O)C=CC1=O)C(=O)N[C@@H](CC(=O)O)C(=O)N[C@@H](CCCNC(=N)N)C(=O)N[C@@H](C)C(=O)NCC(=O)NCC(=O)NCC(=O)NCC(=O)N[C@@H](CCCNC(=N)N)C(=O)NCC(=O)N[C@@H](CC(=O)O)C(=O)O [X55] (X76-RGADRAGGGGRGD-OH)
